Laboratory results taken from patent publication US10213464B2, “Method for enhancing engraftment of haematopoetic stem cells” (SCIPHARM SARL, priority 2011, dated 2019).

Legend:
[1] = test system: (Lin−, c-Kit+, Sca-1+) haematopoetic stem cells; experiment: [3H]cAMP accumulation assay in haematopoetic stem cells; assay type: cell-based, mouse; conditions: for cAMP accumulation, compound per se: without forskolin, FIG. 4, FIG. 5
Experimental: Ten mice (C57BL/6) were sacrificed by cervical dislocation. The long bones of the hind limbs (i.e., femora and tibiae) were freed of muscle and connective tissue and flushed with RPMI medium using a syringe and 27½ G needle. The cell suspension was freed from visible connective tissue, collected and transferred to centrifuge tubes. Cells were harvested by centrifugation (1,200 rpm/˜100 g for 5 min) and resuspended in 3 mL erythrocyte lysis buffer (0.15 M NH4Cl, 10 mM KHCO3, 0.1 mM EDTA, pH adjusted to 7.2 to 7.4). The cell suspension was incubated for 2 min at 20° C. followed by 4 min on ice. Thereafter, RPMI (10 mL) was added and the cells were harvested by centrifugation and counted. […] Cells were resuspended in ice-cold PBS (phosphate buffered saline) containing 2% FCS (fetal calf serum) at a cell density of 2.5*10^8 cells/mL to which a cocktail of biotinylated antibodies (“Lineage Cell Depletion Kit” of Miltenyi Biotec) containing lineage-specific antibodies directed against CD5, CD45R (B220), CD11b, GR-1 (=Ly-6G/C), 7-4, and Ter-119 at a ratio of 0.1 mL antibody solution per 10^8 cells. Cells were incubated for 20 min on ice with the antibodies and pelleted by centrifugation. […] Thereafter, the sample was diluted in MACS-buffer (30 mL), the cells were collected by centrifugation and resuspended in 6 mL of MACS-buffer. This suspension was loaded onto prepacked LS columns, which contain ferromagnetic beads coated with a cell-compatible plastic material. Typically three columns were employed for (2 mL cells suspension/column). The flow-through contained the lineage marker-negative cells (Lin^− cells), while the lineage committed cells were retained on the column. Cells were pelleted by centrifugation and resuspended in […]. Lin^−/sca1^+-cells were incubated in 1 mL of stem cell medium (Stem Span SFEM, Stem Cell Tech #09650) containing 0.5 mg/L each, benzylpenicillin and streptomycin, 50 ng/mL each murine stem cell factor (mSCF), human Flt-3, hIL-11 50 ng/mL, m-IL3 (10 ng/mL) (all from PreProTech) 10 μg/mL adenosine deaminase (Roche) and [^3H]adenine (Perkin Elmer, 1 μCi/mL). The preincubation lasted for 4 h at 37° C. […] The cells were then pelleted (5 min at 100 g), the medium was removed and the pellet was lysed in ice-cold 2.5% perchloric acid (0.9 mL) containing 0.1 mM cAMP, held on ice for 1 h and neutralized with 4.2 M KOH (0.1 mL)). Lineage marker-positive cells were preincubated in a similar manner but the medium contained RMPI instead of serum-free stem cell medium. ATP and cAMP were separated by sequential chromatography on columns containing Dowex AG50-X8 and neutral alumina (12). The fact that differences can only be seen in the presence of forskolin is a technical problem—the signal is too low in the absence of forskolin-sensitization to see any differences between the different compounds, i.e. ilo-, beraprost and treprostinil. Sensitization means that cells are sensitized for receptor response as these cells contain extremely low cAMP.

[2] = test system: haematopoetic stem cells; conditions: in vivo; cited from earlier work
[3] = test system: Lin− (Sca1+ and c-Kit+) haematopoetic stem cells; experiment: Bone marrow transplantation: reconstitution of bone marrow in lethally irradiated mice by ex vivo pretreated stem cells; conditions: FIG. 6
[4] = biological target: T1, EP3-receptors (Homo sapiens, UniProt P43115); conditions: Gi-coupled, inhibit cAMP accumulation; cited from earlier work
T1 sequence (P43115 1-390): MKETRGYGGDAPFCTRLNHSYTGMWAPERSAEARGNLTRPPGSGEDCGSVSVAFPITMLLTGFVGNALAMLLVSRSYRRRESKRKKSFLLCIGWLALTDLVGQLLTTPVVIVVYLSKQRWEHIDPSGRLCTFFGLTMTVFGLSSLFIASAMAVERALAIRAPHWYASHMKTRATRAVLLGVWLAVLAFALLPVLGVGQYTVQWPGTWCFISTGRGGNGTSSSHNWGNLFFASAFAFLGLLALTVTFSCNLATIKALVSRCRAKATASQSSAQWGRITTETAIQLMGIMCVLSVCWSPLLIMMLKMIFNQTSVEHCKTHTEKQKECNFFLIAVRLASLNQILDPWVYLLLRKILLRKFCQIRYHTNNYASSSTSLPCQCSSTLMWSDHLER

[5] = test system: Lin+ haematopoetic cell fraction; experiment: [3H]cAMP accumulation assay in lineage marker-positive cells; assay type: cell-based, mouse; conditions: data not shown
Experimental: Ten mice (C57BL/6) were sacrificed by cervical dislocation. The long bones of the hind limbs (i.e., femora and tibiae) were freed of muscle and connective tissue and flushed with RPMI medium using a syringe and 27½ G needle. The cell suspension was freed from visible connective tissue, collected and transferred to centrifuge tubes. Cells were harvested by centrifugation (1,200 rpm/˜100 g for 5 min) and resuspended in 3 mL erythrocyte lysis buffer (0.15 M NH4Cl, 10 mM KHCO3, 0.1 mM EDTA, pH adjusted to 7.2 to 7.4). The cell suspension was incubated for 2 min at 20° C. followed by 4 min on ice. Thereafter, RPMI (10 mL) was added and the cells were harvested by centrifugation and counted. The typical yield of cells was 3*10^7/mouse. Cells were resuspended in ice-cold PBS (phosphate buffered saline) containing 2% FCS (fetal calf serum) at a cell density of 2.5*10^8 cells/mL to which a cocktail of biotinylated antibodies (“Lineage Cell Depletion Kit” of Miltenyi Biotec) containing lineage-specific antibodies directed against CD5, CD45R (B220), CD11b, GR-1 (=Ly-6G/C), 7-4, and Ter-119 at a ratio of 0.1 mL antibody solution per 10^8 cells. Cells were incubated for 20 min on ice with the antibodies and pelleted by centrifugation. […]

[6] = biological target: EP4-receptors (Homo sapiens, UniProt P35408); conditions: reference 10; cited from earlier work
[7] = biological target: EP2-receptors (Homo sapiens, UniProt P43116); conditions: reference 10; cited from earlier work
[8] = test system: haematopoetic stem cells; conditions: references 7, 8; cited from earlier work

Sequence of EP4-receptors (P35408 whole entry): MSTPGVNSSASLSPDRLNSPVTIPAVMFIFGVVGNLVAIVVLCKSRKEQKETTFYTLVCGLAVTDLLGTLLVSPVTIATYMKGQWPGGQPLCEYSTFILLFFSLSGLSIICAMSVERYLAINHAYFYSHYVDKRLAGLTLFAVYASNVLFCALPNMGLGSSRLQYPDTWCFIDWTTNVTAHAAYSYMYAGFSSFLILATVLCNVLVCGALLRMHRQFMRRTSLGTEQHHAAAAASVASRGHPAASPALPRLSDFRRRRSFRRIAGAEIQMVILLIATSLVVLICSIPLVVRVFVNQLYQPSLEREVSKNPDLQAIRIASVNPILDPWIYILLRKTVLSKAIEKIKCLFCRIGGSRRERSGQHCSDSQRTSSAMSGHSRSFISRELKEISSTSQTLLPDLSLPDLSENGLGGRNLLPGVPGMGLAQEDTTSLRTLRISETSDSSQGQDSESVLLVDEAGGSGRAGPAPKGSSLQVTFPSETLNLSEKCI
Sequence of EP2-receptors (P43116 whole entry): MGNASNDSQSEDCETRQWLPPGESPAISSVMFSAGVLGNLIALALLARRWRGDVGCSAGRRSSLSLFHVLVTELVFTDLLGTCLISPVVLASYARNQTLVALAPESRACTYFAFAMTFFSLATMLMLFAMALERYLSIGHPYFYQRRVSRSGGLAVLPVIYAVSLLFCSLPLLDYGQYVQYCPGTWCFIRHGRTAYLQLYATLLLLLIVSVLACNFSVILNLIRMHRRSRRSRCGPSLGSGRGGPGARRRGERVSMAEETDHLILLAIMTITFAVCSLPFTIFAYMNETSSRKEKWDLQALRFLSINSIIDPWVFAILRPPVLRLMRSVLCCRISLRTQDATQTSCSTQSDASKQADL

CC#CCC(C)[C@H](O)/C=C/[C@@H]1[C@H]2C/C(=C/CCCC(=O)O)C[C@H]2C[C@H]1O (stereo partly drawn) [Iloprost, 5-{(E)-(1S,5S,6R,7R)-7-hydroxy-6[(E)-(3S, 4RS)-3-hydroxy-4-methyl-1-octen-6-inyl]-bi-cyclo[3.3.0]octan-3-ylidene}pentanoic acid]
cAMP accumulation, compound per se ([1]; stimulation 1 h): modest accumulation of cAMP

cholera toxin
(Lin−) precursor cells in the bone marrow after pretreatment [2]: about twice as many

CCCCC[C@H](O)CC[C@@H]1[C@H]2Cc3cccc(OCC(=O)[O-])c3C[C@H]2C[C@H]1O.[Na+] [Treprostinil, (1R,2R,3aS,9aS)-[[2,3,3a,4,9,9a-hexahydro-2-hydroxy-1-[(3S)-3-hydroxyoctyl]-1H-benz[f]inden-5-yl]oxy]acetic acid monosodium salt]
concentration range of concentration-dependent accumulation of cAMP ([1]; FIG. 5): 0.1 to 10 µM | EC50 ([1]; Mus musculus, concentration-response curve, FIG. 5, read-out: estimated EC50 of cAMP accumulation): ~0.3 µM | increase in cAMP levels when combined with forskolin ([1]; combined with forskolin, stimulation 1 h, FIG. 4): exceeded that caused by the IP-(I prostanoid) receptor-specific compounds Iloprost and Beraprost | cAMP accumulation, compound per se ([1]; stimulation 1 h, listed as Trepostinil, monosodium salt): increase of cAMP is significant | cAMP accumulation, compound per se ([1]; stimulation 1 h, monosodium salt): modest accumulation of cAMP | level of circulating white blood cells ([3]; day 60 after injection of 3*10^5 cells pretreated ex vivo with 10 μM for 1 h at 37° C., versus vehicle-treated cells): significantly higher levels of circulating white blood cells | effectiveness compared with positive control cholera toxin ([3]; ex vivo pretreatment, white blood cell count): as effective as the positive control cholera toxin | agonism at EP3-receptors [4]: low affinity agonist | cAMP levels in Lin+ cells [5]: failed to increase cAMP levels | stimulation of EP4-receptors [6]: stimulates | stimulation of EP2-receptors [7]: stimulates

CCCCC(C)(C)[C@H](O)/C=C/[C@H]1[C@H](O)CC(=O)[C@@H]1C/C=C\CCCC(=O)O [dimethyl-PGE2]
engraftment after pretreatment [8]: enhances their engraftment | agonism at EP3-receptors [4]: full agonist

CC#CCC(C)C(O)C=CC1C(O)CC2Oc3c(CCCC(=O)O)cccc3C21 (stereo not shown) [Beraprost, 2,3,3a,8b-tetrahydro-2-hydroxy-1-(3-hydroxy-4-methyl-1-octen-6-ynyl)-1H-cyclopenta(b)benzofuran-5-butanoic acid]
cAMP accumulation, compound per se ([1]; stimulation 1 h): modest accumulation of cAMP
